In US20250049914A1, “STEROID ACID-PEPTIDE BASED INTRACELLULAR CARGO DELIVERY” (DEFENCE THERAPEUTICS INC., priority 2021, published 2025):
Where no end group is shown, it is not given here.

Tests used:
MSCs [1] = experiment: Endosomal escape, apoptosis assay with recombinant cytochrome C; assay type: cell-based, mouse; conditions: CA-hnRNPA1 50 μM, 6 h
Experimental: Endosomal leakage was assessed using an apoptosis assay. Briefly, 10′ MSCs were first supplemented with 10 mg/mL of exogenous rCyt-C for 6 h at 37° C. in the presence or absence of CA-hnRNPA1 (50 μM). Once the incubation period completed, the cells were collected using Accutase®, washed with ice cold PBS, then stained for Annexin-V according to manufacturer's instructions prior to analysis using BD FACS Diva™ on CANTOII™.

WT MSCs = experiment: Antigen cross-presentation assay on wild-type MSCs with B3Z cells; assay type: cell-based, mouse
Experimental: In order to generate Bone marrow (BM)-derived mouse MSCs, the femurs of 6-8-week-old female Balb/c or C57BL/6 mice were isolated and flushed with Alpha Modification of Eagle's Medium (AMEM) supplemented with 10% FBS and 50 U/mL Penicillin-Streptomycin in a 10 cm cell culture dish, then incubated at 37° C. Two days later, non-adherent cells were removed and the media replaced every 3 to 4 days until plastic-adherent cells reached 80% confluency. The generated cells were detached using 0.05% trypsin and expanded until a uniform MSC population was obtained. The generated MSCs were validated for their innate phenotype by flow-cytometry for the expression of CD44, CD45, CD73, and CD90. The cells were frozen in liquid nitrogen until use.
To assess cross-presentation assay, 25×10^3 cells MSCs were seeded per well in 24-well plate then pulsed with steroid acid peptide-conjugated for 6 h admixed with OVA. At the end of the pulsing period, the cells were washed to remove excess antigen then 5×10^4 B3Z cells. The cells were incubated for 17-19 hours prior to their lysis and incubation for another 4-6 hours at 37° C. with a CPRG solution. The optical density signal was detected at wavelength 570 using a SynergyH1™ microplate reader (Biotek, Winooski, VT, United States).
To determine whether a similar effect occurs in wild type (WT) (i.e., non-engineered) MSCs, BM-derived MSCs (Example 1) were used instead in the same cross presentation assay with B3Z responder cells.

[2] = system: mesenchymal stromal cells (MSCs); experiment: DQ OVA degradation/processing in MSCs, flow cytometry; assay type: cell-based; conditions: DQ OVA coincubated with conjugate, nine hours
Experimental: To evaluate OVA degradation/processing, cells were incubated with 10 µg/mL DQ™ OVA (with or without steroid acid-peptide modification) at 37° C. 30 minutes later, cells were washed, and regular media was added. At the end of the indicated incubation time, cells were collected and washed with cold PBS containing 2% FBS. Fluorescence was monitored by analyzing the cells by flow cytometry.
Mesenchymal stromal cells (MSCs) were incubated with either unconjugated fluorescently labeled OVA-AF647 alone or mixed with 45 μM of CA-HnRPA1 NLS steroid acid-peptide for nine hours and then intracellular OVA-AF647 delivery was assessed by flow cytometry as described in Example 1. […] The experiment was repeated with DQ™ OVA as cargo to evaluate the intracellular fate of the cargo delivered upon coincubation with CA-HnRPA1 NLS, as described in Example 4.

MSCs [3] = experiment: Flow cytometry assessment of ROS production; assay type: cell-based, mouse; conditions: WT MSCs
From the text: Dp44mt was used as a positive control. […] For FIGS. 19A-19C, n=6/group with *P<0.05, **P<0.01 and ***P<0.001.
Next, the mechanism involved in cross presentation enhancement of steroid acid-peptide conjugates was further dissected.

cpMSCs = experiment: OVA-AF647 internalization in cpMSCs, flow cytometry; assay type: cell-based; conditions: various molar ratios
Experimental: For this experiment, a cross-presenting mesenchymal stromal cell line (cpMSC) was used as the antigen presenting cells, which were pulsed with the OVA cargo labelled with Alexa Fluor 647 (i.e., OVA^647)^TM. OVA^647 fluorescence was measured by flow cytometry. Different ratios of CA (NLS1 RPS17 [FIG. 16A]; NLS3 RPS17 [FIG. 16B]; and PQBP-1 [FIG. 16C] to antigen (CA: OVA=22:1, 12:1, 8:1, 4:1, and 2:1) were tested (hnRNPA1 M9 NLS at 2:1).
To further dissect the effect of bile acid peptide conjugates on antigen presentation, antigen internalization and processing were evaluated. cpMSCs were pulsed with OVA-labelled with AF647 in the presence of various molar ratios of different bile acid peptide conjugates, NLS1-RPS17 [FIG. 16A]; NLS3 RPS17 [FIG. 16B]; PQBP-1 [FIG. 16C]; and hnRNPA1 M9 NLS [FIG. 6]) and fluorescence was assessed by flow cytometry. […] OVA processing was assessed by pulsing cpMSCs with DQ™-Ovalbumin (OVA-DQ) in the presence of the same bile acid peptide conjugates as in FIGS. 6 and 16.

Substance: CA-hnRNPA1: cholic acid conjugated to hnRNPA1 M9 NLS peptide CSNFGPMKGGNFGGRSSGPY (SEQ ID NO: 4) (not fully specified (N-terminus); also: cholic acid conjugate, site not given here)
- endosomal membrane damage (co-treatment with recombinant cytochrome C) (MSCs [1]): endosomal membrane damaging properties
- antigen cross-presentation with conjugate diluted in PBS or H2O (WT MSCs; WT MSCs): enhancement
- OVA cross presentation by WT MSCs (B3Z) (WT MSCs; WT MSCs pulsed with OVA with or without conjugate): significantly enhanced
- DQ OVA fluorescence (intracellular degradation/processing) ([2]; listed as CA-HnRPA1 NLS): sharp increase
- DQ OVA fluorescence (intracellular degradation/processing) ([2]; listed as CA-hnRPA1 M9 NLS): increased intracellular degradation/processing
- ROS production by MSCs (MSCs [3]): increase in ROS production
- OVA internalization (OVA-AF647 fluorescence) (cpMSCs): enhance OVA internalization
